Test results taken from the kinase profiling compilation of Christmann-Franck et al. (2016).
“And” between values parts separate entries of the source, which are not always exact repeats. Identical values can stand only once.

Legend:
Assay in all cases: radiometric filter-binding kinase assay, Kinase HotSpot
Details in all cases: compound 0.5 µM; ATP 10 µM
TBK1 (human) = TBK1 (human) (UniProt Q9UHD2)
LYN (human) = LYN (human) (UniProt P07948)
MAP3K7 TAB1 (human) = MAP3K7 TAB1 (human) (UniProt O43318+Q15750)
Chain of MAP3K7 TAB1 (human) (O43318 whole entry, looked up): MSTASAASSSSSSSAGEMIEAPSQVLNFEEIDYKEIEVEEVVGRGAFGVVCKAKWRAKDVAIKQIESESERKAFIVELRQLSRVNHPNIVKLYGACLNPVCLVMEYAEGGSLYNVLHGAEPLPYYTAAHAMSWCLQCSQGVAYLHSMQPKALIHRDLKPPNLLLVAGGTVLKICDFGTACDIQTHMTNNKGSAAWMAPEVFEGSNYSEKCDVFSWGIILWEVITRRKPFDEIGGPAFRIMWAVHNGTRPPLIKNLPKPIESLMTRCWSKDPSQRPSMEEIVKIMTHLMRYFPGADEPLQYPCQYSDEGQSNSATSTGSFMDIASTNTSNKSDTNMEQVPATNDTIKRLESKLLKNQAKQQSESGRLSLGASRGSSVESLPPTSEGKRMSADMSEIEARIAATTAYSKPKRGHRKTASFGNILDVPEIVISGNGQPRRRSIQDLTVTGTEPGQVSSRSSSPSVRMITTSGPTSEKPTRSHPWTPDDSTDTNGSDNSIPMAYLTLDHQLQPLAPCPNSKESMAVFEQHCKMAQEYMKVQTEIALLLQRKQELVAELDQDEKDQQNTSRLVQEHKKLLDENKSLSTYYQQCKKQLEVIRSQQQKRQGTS
Chain of MAP3K7 TAB1 (human) (Q15750 whole entry, looked up): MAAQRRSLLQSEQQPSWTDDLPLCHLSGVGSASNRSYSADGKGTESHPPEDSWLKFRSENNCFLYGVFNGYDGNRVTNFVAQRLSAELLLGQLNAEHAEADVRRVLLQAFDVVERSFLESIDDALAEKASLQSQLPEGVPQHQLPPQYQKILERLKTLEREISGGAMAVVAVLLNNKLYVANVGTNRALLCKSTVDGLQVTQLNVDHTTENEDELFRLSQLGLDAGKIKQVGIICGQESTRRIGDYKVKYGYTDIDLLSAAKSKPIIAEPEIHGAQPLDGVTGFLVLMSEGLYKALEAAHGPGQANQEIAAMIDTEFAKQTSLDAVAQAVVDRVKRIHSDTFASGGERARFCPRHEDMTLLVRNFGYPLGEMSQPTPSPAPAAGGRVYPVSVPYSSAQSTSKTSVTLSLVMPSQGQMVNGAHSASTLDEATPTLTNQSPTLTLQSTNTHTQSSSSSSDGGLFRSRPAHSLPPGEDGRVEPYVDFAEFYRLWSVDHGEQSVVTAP

NEK3 (human) = NEK3 (human) (UniProt P51956)
PIM3 (human) = PIM3 (human) (UniProt Q86V86)
ZAP70 (human) = ZAP70 (human) (UniProt P43403)
IKBKE (human) = IKBKE (human) (UniProt Q14164)
IRAK4 (human) = IRAK4 (human) (UniProt Q9NWZ3)
GSK3B (human) = GSK3B (human) (UniProt P49841)
CDK4 CCND1 (human) = CDK4 CCND1 (human) (UniProt P24385+P11802)
FYN (human) = FYN (human) (UniProt P06241)
Chain of FYN (human) (P06241 whole entry, looked up): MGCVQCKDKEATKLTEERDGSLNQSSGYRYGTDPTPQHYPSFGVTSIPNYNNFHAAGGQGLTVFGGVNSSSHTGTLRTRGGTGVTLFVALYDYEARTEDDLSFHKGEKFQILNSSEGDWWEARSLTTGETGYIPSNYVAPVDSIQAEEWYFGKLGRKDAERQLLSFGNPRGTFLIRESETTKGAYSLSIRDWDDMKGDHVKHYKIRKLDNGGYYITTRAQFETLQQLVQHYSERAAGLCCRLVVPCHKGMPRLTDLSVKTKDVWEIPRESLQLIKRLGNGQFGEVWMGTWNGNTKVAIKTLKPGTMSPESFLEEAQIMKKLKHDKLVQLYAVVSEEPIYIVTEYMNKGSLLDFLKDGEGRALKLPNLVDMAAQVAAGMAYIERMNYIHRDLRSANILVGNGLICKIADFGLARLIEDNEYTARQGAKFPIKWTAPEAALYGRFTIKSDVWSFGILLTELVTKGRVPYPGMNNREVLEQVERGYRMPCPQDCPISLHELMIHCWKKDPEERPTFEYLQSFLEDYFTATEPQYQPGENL

PRKD3 (human) = PRKD3 (human) (UniProt O94806)
MARK3 (human) = MARK3 (human) (UniProt P27448)
Chain of MARK3 (human) (P27448 whole entry, looked up): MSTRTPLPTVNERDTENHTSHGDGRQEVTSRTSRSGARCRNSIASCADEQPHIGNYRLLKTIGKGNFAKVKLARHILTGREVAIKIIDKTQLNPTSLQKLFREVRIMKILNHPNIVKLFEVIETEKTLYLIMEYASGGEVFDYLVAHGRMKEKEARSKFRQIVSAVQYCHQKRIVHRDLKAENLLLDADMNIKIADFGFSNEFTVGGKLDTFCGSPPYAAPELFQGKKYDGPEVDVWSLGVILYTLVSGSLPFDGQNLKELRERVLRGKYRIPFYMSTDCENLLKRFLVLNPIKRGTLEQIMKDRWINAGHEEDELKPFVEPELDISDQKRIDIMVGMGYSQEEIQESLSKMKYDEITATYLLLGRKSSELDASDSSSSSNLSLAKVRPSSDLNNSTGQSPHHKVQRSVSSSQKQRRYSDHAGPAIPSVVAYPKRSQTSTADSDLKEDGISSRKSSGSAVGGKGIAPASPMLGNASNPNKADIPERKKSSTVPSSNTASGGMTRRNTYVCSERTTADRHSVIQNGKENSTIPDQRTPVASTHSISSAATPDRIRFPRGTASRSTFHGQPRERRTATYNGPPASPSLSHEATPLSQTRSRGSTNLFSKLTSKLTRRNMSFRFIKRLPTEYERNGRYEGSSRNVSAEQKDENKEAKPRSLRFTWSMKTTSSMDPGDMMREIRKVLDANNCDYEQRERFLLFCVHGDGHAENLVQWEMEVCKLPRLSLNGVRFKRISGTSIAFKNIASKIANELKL

CHEK1 (human) = CHEK1 (human) (UniProt O14757)
NEK7 (human) = NEK7 (human) (UniProt Q8TDX7)
WEE1 (human) = WEE1 (human) (UniProt P30291)
WNK2 (human) = WNK2 (human) (UniProt Q9Y3S1)
PAK1 (human) = PAK1 (human) (UniProt Q13153)
NEK2 (human) = NEK2 (human) (UniProt P51955)
SGK2 (human) = SGK2 (human) (UniProt Q9HBY8)
CAMK2D (human) = CAMK2D (human) (UniProt Q13557)
MARK4 (human) = MARK4 (human) (UniProt Q96L34)
BRSK2 (human) = BRSK2 (human) (UniProt Q8IWQ3)
MAP4K4 (human) = MAP4K4 (human) (UniProt O95819)
TXK (human) = TXK (human) (UniProt P42681)
MAPKAPK3 (human) = MAPKAPK3 (human) (UniProt Q16644)
MAPK1 (human) = MAPK1 (human) (UniProt P28482)
PRKCB2 (human) = PRKCB2 (human) (UniProt P05771)
NEK4 (human) = NEK4 (human) (UniProt P51957)
Chain of NEK4 (human) (P51957 whole entry, looked up): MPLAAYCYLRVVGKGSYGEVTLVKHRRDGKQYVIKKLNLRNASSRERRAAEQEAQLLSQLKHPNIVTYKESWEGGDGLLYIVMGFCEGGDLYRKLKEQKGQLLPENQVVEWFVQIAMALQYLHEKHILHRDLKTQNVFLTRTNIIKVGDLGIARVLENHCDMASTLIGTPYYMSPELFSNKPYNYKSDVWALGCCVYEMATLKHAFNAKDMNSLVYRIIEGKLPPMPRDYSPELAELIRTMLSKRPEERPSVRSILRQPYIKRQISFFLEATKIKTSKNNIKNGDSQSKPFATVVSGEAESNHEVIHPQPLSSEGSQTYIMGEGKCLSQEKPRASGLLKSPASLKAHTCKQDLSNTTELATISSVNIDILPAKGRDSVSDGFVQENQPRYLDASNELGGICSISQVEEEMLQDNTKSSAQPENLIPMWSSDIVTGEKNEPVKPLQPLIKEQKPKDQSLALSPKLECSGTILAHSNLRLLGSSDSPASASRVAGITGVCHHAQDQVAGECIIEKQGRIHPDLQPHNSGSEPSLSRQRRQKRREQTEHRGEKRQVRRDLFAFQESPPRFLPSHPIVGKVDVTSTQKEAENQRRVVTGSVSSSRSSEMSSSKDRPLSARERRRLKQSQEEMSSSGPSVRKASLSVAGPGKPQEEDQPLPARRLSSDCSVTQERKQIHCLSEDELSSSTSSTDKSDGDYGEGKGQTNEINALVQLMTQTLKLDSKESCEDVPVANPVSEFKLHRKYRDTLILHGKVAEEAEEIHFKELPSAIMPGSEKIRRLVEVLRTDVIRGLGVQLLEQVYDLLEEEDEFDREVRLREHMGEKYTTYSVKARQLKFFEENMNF

PBK (human) = PBK (human) (UniProt Q96KB5)
PDGFRA (human) = PDGFRA (human) (UniProt P16234)
ADRBK1 (human) = ADRBK1 (human) (UniProt P25098)
VRK1 (human) = VRK1 (human) (UniProt Q99986)
Chain of VRK1 (human) (Q99986 whole entry, looked up): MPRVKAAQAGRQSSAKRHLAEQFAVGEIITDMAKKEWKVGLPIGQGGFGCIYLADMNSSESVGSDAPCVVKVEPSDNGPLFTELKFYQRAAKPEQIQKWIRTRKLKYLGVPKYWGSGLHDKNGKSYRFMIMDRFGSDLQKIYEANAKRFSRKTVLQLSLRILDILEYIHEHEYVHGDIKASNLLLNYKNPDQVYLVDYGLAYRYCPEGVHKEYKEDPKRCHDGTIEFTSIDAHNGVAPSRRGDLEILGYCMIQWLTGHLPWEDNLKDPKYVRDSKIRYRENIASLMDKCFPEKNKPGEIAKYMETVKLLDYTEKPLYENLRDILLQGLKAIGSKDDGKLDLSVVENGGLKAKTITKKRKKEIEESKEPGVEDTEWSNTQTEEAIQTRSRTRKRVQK

DAPK1 (human) = DAPK1 (human) (UniProt P53355)
TSSK1B (human) = TSSK1B (human) (UniProt Q9BXA7)
SRC (human) = SRC (human) (UniProt P12931)
ALK (human) = ALK (human) (UniProt Q9UM73)
CLK4 (human) = CLK4 (human) (UniProt Q9HAZ1)
NEK1 (human) = NEK1 (human) (UniProt Q96PY6)
TGFBR2 (human) = TGFBR2 (human) (UniProt P37173)
RPS6KA3 KD1 KD2 (human) = RPS6KA3 KD1 KD2 (human) (UniProt P51812)
IRAK1 (human) = IRAK1 (human) (UniProt P51617)

Chain of LYN (human) (P07948 whole entry, looked up): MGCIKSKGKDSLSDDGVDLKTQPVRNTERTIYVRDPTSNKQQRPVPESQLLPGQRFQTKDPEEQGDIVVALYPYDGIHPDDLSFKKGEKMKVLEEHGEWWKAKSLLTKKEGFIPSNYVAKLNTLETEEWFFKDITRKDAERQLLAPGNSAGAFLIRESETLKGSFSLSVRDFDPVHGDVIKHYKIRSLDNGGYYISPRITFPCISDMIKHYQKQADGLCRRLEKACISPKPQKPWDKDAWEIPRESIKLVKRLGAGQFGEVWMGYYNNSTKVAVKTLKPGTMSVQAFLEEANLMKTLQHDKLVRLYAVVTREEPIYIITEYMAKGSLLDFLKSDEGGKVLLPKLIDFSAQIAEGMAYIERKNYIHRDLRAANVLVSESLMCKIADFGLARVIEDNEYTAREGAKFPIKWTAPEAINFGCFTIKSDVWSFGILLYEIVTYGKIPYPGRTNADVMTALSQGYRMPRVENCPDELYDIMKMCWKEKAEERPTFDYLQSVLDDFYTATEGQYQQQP
Chain of TBK1 (human) (Q9UHD2 whole entry, looked up): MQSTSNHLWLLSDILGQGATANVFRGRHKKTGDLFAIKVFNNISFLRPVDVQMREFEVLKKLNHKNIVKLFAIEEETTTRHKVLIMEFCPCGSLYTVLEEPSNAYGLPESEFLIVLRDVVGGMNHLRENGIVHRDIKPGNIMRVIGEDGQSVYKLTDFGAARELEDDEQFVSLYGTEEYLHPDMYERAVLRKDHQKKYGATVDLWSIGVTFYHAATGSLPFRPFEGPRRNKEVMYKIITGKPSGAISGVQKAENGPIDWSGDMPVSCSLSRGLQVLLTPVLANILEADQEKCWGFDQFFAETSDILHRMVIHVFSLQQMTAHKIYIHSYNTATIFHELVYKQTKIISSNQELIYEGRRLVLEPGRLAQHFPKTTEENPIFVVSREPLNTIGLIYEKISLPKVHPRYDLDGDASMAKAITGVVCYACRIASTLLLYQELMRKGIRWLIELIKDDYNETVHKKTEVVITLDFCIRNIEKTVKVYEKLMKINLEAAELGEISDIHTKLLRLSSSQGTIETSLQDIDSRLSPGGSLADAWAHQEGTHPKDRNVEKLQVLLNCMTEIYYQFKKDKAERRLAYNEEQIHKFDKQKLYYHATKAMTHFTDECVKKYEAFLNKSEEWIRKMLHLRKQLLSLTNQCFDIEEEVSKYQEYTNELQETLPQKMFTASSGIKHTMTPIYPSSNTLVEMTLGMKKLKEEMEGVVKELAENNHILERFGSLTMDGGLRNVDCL

Clc1ccc(Nc2nnc(Cc3ccncc3)c3ccccc23)cc1
residual activity (TBK1 (human)): 104% | residual activity (LYN (human)): 110% and 91.8% | residual activity (MAP3K7 TAB1 (human)): 99.6% | residual activity (NEK3 (human)): 94.1% | residual activity (PIM3 (human)): 98.9% | residual activity (ZAP70 (human)): 96.6% | residual activity (IKBKE (human)): 95.7% | residual activity (IRAK4 (human)): 85.1% | residual activity (GSK3B (human)): 104% | residual activity (CDK4 CCND1 (human)): 96.6% | residual activity (FYN (human)): 104% | residual activity (PRKD3 (human)): 94.7% | residual activity (MARK3 (human)): 102% | residual activity (CHEK1 (human)): 96.5% | residual activity (NEK7 (human)): 96.8% | residual activity (WEE1 (human)): 109% | residual activity (WNK2 (human)): 96.3% | residual activity (PAK1 (human)): 116% | residual activity (NEK2 (human)): 101% | residual activity (SGK2 (human)): 104% | residual activity (CAMK2D (human)): 81.1% | residual activity (MARK4 (human)): 104% | residual activity (BRSK2 (human)): 97.1% | residual activity (MAP4K4 (human)): 107% | residual activity (TXK (human)): 110% | residual activity (MAPKAPK3 (human)): 98.9% | residual activity (MAPK1 (human)): 87.6% | residual activity (PRKCB2 (human)): 97.2% | residual activity (NEK4 (human)): 97.7% | residual activity (PBK (human)): 108% | residual activity (PDGFRA (human)): 33.3% | residual activity (ADRBK1 (human)): 102% | residual activity (VRK1 (human)): 109% | residual activity (DAPK1 (human)): 105% | residual activity (TSSK1B (human)): 94.8% | residual activity (SRC (human)): 104% | residual activity (ALK (human)): 102% | residual activity (CLK4 (human)): 108% | residual activity (NEK1 (human)): 75.3% | residual activity (TGFBR2 (human)): 100% | residual activity (RPS6KA3 KD1 KD2 (human)): 101% | residual activity (IRAK1 (human)): 94.1%

COc1cc2nccc(Oc3ccc(NC(=S)NC(=O)c4ccccc4C)cc3)c2cc1OC
residual activity (TBK1 (human)): 103% | residual activity (LYN (human)): 16.9% and 31.8% | residual activity (MAP3K7 TAB1 (human)): 95.6% | residual activity (NEK3 (human)): 99.6% | residual activity (PIM3 (human)): 98.2% | residual activity (ZAP70 (human)): 97% | residual activity (IKBKE (human)): 96.2% | residual activity (IRAK4 (human)): 82.4% | residual activity (GSK3B (human)): 97.7% | residual activity (CDK4 CCND1 (human)): 95.1% | residual activity (FYN (human)): 77.4% | residual activity (PRKD3 (human)): 97.8% | residual activity (MARK3 (human)): 79.2% | residual activity (CHEK1 (human)): 95.1% | residual activity (NEK7 (human)): 106% | residual activity (WEE1 (human)): 89.6% | residual activity (WNK2 (human)): 94.1% | residual activity (PAK1 (human)): 101% | residual activity (NEK2 (human)): 89% | residual activity (SGK2 (human)): 97.3% | residual activity (CAMK2D (human)): 102% | residual activity (MARK4 (human)): 73.3% | residual activity (BRSK2 (human)): 93% | residual activity (MAP4K4 (human)): 87.8% | residual activity (TXK (human)): 66.9% | residual activity (MAPKAPK3 (human)): 102% | residual activity (MAPK1 (human)): 89.3% | residual activity (PRKCB2 (human)): 102% | residual activity (NEK4 (human)): 97.6% | residual activity (PBK (human)): 81.3% | residual activity (PDGFRA (human)): 12.5% | residual activity (ADRBK1 (human)): 95.6% | residual activity (VRK1 (human)): 96.3% | residual activity (DAPK1 (human)): 101% | residual activity (TSSK1B (human)): 83.6% | residual activity (SRC (human)): 71.7% | residual activity (ALK (human)): 80.8% | residual activity (CLK4 (human)): 87.8% | residual activity (NEK1 (human)): 96.7% | residual activity (TGFBR2 (human)): 96.7% | residual activity (RPS6KA3 KD1 KD2 (human)): 86.9% | residual activity (IRAK1 (human)): 99.6%
